Test results from patent publication US20260062443A1 (ALEXION PHARMACEUTICALS, INC., priority 2022, published 2026).

Molecular target: T1, Human complement C1s enzyme (Homo sapiens, UniProt P09871)
T1 sequence (P09871 438-688 limits assumed): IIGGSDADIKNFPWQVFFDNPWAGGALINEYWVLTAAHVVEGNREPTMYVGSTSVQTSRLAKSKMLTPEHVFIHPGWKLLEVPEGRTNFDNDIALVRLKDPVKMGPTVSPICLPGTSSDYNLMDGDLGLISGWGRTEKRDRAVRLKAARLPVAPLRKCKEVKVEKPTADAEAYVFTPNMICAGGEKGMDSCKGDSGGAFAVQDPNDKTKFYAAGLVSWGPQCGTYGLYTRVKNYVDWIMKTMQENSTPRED
T1 sequence (P09871 16-437 partner limits assumed): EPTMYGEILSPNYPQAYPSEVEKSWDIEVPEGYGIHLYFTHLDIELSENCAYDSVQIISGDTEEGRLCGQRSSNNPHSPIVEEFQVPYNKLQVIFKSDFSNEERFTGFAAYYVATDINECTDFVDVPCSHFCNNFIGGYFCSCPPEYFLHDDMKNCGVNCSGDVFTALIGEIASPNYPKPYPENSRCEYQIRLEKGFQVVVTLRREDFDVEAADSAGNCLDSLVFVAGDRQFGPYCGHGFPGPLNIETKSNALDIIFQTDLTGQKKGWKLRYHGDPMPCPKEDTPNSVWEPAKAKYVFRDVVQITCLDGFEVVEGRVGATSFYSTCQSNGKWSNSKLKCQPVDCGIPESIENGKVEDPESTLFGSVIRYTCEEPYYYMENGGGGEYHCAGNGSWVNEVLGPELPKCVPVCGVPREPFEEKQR
Assay: Human C1s enzyme assay
Type: biochemical
Conditions: human complement C1s enzyme 1.16 nM, substrate Z-L-Lys-SBzl 100 μM, 5 min preincubation; read-out: IC50 (Stars), C1s Inhibiting Activity
In short: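 IC50 from nonlinear regression of reaction rates versus compound concentration, with rates taken from A405 recorded at 30 s intervals over 30 min after adding 100 μM Z-L-Lys-SBzl plus 100 μM DTNB. Enzyme was human C1s purified from serum, 1.16 nM, given 5 min compound preincubation at room temperature, pH 7.5 Tris/1 M NaCl.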

SMILES	IC50
Cc1cc(C(=O)NCC(=O)N2C[C@H](OC(F)F)C[C@H]2C(=O)N[C@H](C)c2cc3cnccc3[nH]2)ccc1Oc1ccc(F)cc1 [Compound 143, (2S,4R)-N-((R)-1-(1H-pyrrolo[3,2-c]pyridin-2-yl)ethyl)-4-(difluoromethoxy)-1-((4-(4-fluorophenoxy)-3-methylbenzoyl)glycyl)pyrrolidine-2-carboxamide]	< 100 nM
O=C(NCC(=O)N1CC2(C[C@H]1C(=O)NCc1cc3cnccc3[nH]1)OCCO2)c1ccc2c(c1)oc1ccccc12 [Compound 213, (S)-N-((1H-pyrrolo[3,2-c]pyridin-2-yl)methyl)-7-((dibenzo[b,d]furan-3-carbonyl)glycyl)-1,4-dioxa-7-azaspiro[4.4]nonane-8-carboxamide]	< 100 nM
C[C@@]12C[C@@H]1N(C(=O)CNC(=O)c1cccc(Oc3ccc(F)cc3)c1)[C@H](C(=O)NCc1cc3cnccc3[nH]1)C2 [Compound 153, (1S,3S,5S)-N-((1H-pyrrolo[3,2-c]pyridin-2-yl)methyl)-2-((3-(4-fluorophenoxy)benzoyl)glycyl)-5-methyl-2-azabicyclo[3.1.0]hexane-3-carboxamide]	< 100 nM
C[C@@]12C[C@@H]1N(C(=O)CN1Cc3ccc(Oc4ccccc4)cc3C1=O)[C@H](C(=O)NCc1cc3cnccc3[nH]1)C2 [Compound 156, (1S,3S,5S)-N-((1H-pyrrolo[3,2-c]pyridin-2-yl)methyl)-5-methyl-2-(2-(1-oxo-6-phenoxyisoindolin-2-yl)acetyl)-2-azabicyclo[3.1.0]hexane-3-carboxamide]	100 to 1000 nM
O=C(NCC(=O)N1CC2(C[C@H]1C(=O)NCc1cc3ccccc3[nH]1)OCCO2)c1ccc2c(c1)Oc1ccccc1S2 [Compound 29, (S)-N-((1H-indol-2-yl)methyl)-7-((phenoxathiine-3-carbonyl)glycyl)-1,4-dioxa-7-azaspiro[4.4]nonane-8-carboxamide]	> 1000 nM
C[C@@H](NC(=O)[C@@H]1C[C@@H](OC(F)F)CN1C(=O)CNC(=O)c1ccc(Oc2ccccc2)cc1)c1cc2cnccc2[nH]1 [Compound 39, (2S,4R)-N-((R)-1-(1H-pyrrolo[3,2-c]pyridin-2-yl)ethyl)-4-(difluoromethoxy)-1-((4-phenoxybenzoyl)glycyl)pyrrolidine-2-carboxamide]	< 100 nM
C[C@@]12C[C@@H]1N(C(=O)CNC(=O)c1ccc(Oc3ccccc3)cc1)[C@H](C(=O)NCc1ccc(Cl)cc1)C2 [Compound 373, (1S,3S,5S)-N-(4-chlorobenzyl)-5-methyl-2-((4-phenoxybenzoyl)glycyl)-2-azabicyclo[3.1.0]hexane-3-carboxamide]	> 1000 nM
C[C@@H](NC(=O)[C@@H]1C[C@]2(Cc3nccs3)C[C@@H]2N1C(=O)CNC(=O)c1ccc2c(c1)Oc1ccccc1S2)c1cc2cnccc2[nH]1 [Compound 186, (1S,3S,5S)-N-((R)-1-(1H-pyrrolo[3,2-c]pyridin-2-yl)ethyl)-2-((phenoxathiine-3-carbonyl)glycyl)-5-(thiazol-2-ylmethyl)-2-azabicyclo[3.1.0]hexane-3-carboxamide]	< 100 nM
C[C@@H](NC(=O)[C@@H]1CC2(CN1C(=O)CN1Cc3cc(-c4ccc(F)cc4F)ccc3C1=O)OCCO2)c1cc2cnccc2[nH]1 [Compound 122, (S)-N-((R)-1-(1H-pyrrolo[3,2-c]pyridin-2-yl)ethyl)-7-(2-(5-(2,4-difluorophenyl)-1-oxoisoindolin-2-yl)acetyl)-1,4-dioxa-7-azaspiro[4.4]nonane-8-carboxamide]	100 to 1000 nM
O=C(NCc1cc2cnccc2[nH]1)[C@@H]1CC2(CN1C(=O)CN1Cc3cc(-c4ccc(F)cc4F)ccc3C1=O)OCCO2 [Compound 120, (S)-N-((1H-pyrrolo[3,2-c]pyridin-2-yl)methyl)-7-(2-(5-(2,4-difluorophenyl)-1-oxoisoindolin-2-yl)acetyl)-1,4-dioxa-7-azaspiro[4.4]nonane-8-carboxamide]	< 100 nM
CCc1ccc(Oc2cc(F)cc(C(=O)NCC(=O)N3C[C@@](F)(Cn4ccnc4)C[C@H]3C(=O)NCc3cc4cnccc4[nH]3)c2)cc1 [Compound 372, (2S,4S)-4-((1H-imidazol-1-yl)methyl)-N-((1H-pyrrolo[3,2-c]pyridin-2-yl)methyl)-1-((3-(4-ethylphenoxy)-5-fluorobenzoyl)glycyl)-4-fluoropyrrolidine-2-carboxamide]	< 100 nM
Cc1ccc(Oc2cccc(C(=O)NCC(=O)N3C[C@H](S(C)(=O)=O)C[C@H]3C(=O)NCc3cc4cnccc4[nH]3)c2)c(F)c1 [Compound 309, (2S,4R)-N-((1H-pyrrolo[3,2-c]pyridin-2-yl)methyl)-1-((3-(2-fluoro-4-methylphenoxy)benzoyl)glycyl)-4-(methylsulfonyl) pyrrolidine-2-carboxamide]	< 100 nM
O=C(NCC(=O)N1CC2(C[C@H]1C(=O)NCc1cc3ccncc3[nH]1)OCCO2)c1ccc2c(c1)-c1ccccc1C2(F)F [Compound 9, (S)-N-((1H-pyrrolo[2,3-c]pyridin-2-yl)methyl)-7-((9,9-difluoro-9H-fluorene-3-carbonyl)glycyl)-1,4-dioxa-7-azaspiro[4.4]nonane-8-carboxamide]	100 to 1000 nM
O=C(NCC(=O)N1CC2(C[C@H]1C(=O)NCc1cc3cc(Cl)ccc3[nH]1)OCCO2)c1ccc2c(c1)Oc1ccccc1S2 [Compound 19, (S)-N-((5-chloro-1H-indol-2-yl)methyl)-7-((phenoxathiine-3-carbonyl)glycyl)-1,4-dioxa-7-azaspiro[4.4]nonane-8-carboxamide]	> 1000 nM
Cc1cc(F)ccc1Oc1cccc(C(=O)NCC(=O)N2C[C@H](OC(F)F)C[C@H]2C(=O)NCc2cc3cnccc3[nH]2)c1 [Compound 274, (2S,4R)-N-((1H-pyrrolo[3,2-c]pyridin-2-yl)methyl)-4-(difluoromethoxy)-1-((3-(4-fluoro-2-methylphenoxy)benzoyl)glycyl) pyrrolidine-2-carboxamide]	< 100 nM
Cc1ccc(Oc2cccc(C(=O)NCC(=O)N3N=CC[C@H]3C(=O)NCc3cc4cnccc4[nH]3)c2F)cc1 [Compound 375, (S)-N-((1H-pyrrolo[3,2-c]pyridin-2-yl)methyl)-1-((2-fluoro-3-(p-tolyloxy)benzoyl)glycyl)-4,5-dihydro-1H-pyrazole-5-carboxamide]	< 100 nM
CS(=O)(=O)[C@@H]1C[C@@H](C(=O)N[C@H](CO)c2cc3cnccc3[nH]2)N(C(=O)CNC(=O)c2ccc(Oc3ccc(F)cc3)cc2)C1 [Compound 96, (2S,4R)-1-((4-(4-fluorophenoxy)benzoyl)glycyl)-N-((S)-2-hydroxy-1-(1H-pyrrolo[3,2-c]pyridin-2-yl)ethyl)-4-(methylsulfonyl) pyrrolidine-2-carboxamide]	> 1000 nM
C[C@@H](NC(=O)[C@@H]1C[C@@H](OC(F)F)CN1C(=O)CNC(=O)c1cnc2c(c1)Oc1ccccc1S2)c1cc2cnccc2[nH]1 [Compound 283, N-[2-[(2S,4R)-4-(difluoromethoxy)-2-[[(1R)-1-(1H-pyrrolo[3,2-c]pyridin-2-yl)ethyl]carbamoyl]pyrrolidin-1-yl]-2-oxo-ethyl]-[1,4]benzoxathiino[3,2-b]pyridine-3-carboxamide]	< 100 nM
C[C@@H](NC(=O)[C@@H]1CC(Cn2ccnc2)CN1C(=O)CNC(=O)c1ccc2c(c1)Oc1ccccc1S2)c1cc2cnccc2[nH]1 (stereo partly drawn) [Compound 184, (2S)-4-((1H-imidazol-1-yl)methyl)-N-((R)-1-(1H-pyrrolo[3,2-c]pyridin-2-yl)ethyl)-1-((phenoxathiine-3-carbonyl)glycyl)pyrrolidine-2-carboxamide]	< 100 nM
COC[C@@]1(F)C[C@@H](C(=O)N[C@@H](C)c2cc3cnccc3[nH]2)N(C(=O)CNC(=O)c2ccc(Oc3ccccc3)cc2)C1 [Compound 21, (2S,4R)-N-((S)-1-(1H-pyrrolo[3,2-c]pyridin-2-yl)ethyl)-4-fluoro-4-(methoxymethyl)-1-((4-phenoxybenzoyl)glycyl)pyrrolidine-2-carboxamide]	> 1000 nM
Cc1ccc(Oc2cccc(C(=O)NCC(=O)N3[C@H]4C[C@@]4(C)C[C@H]3C(=O)NCc3cc4cnccc4[nH]3)c2)c(F)c1 [Compound 315, (1S,3S,5S)-N-((1H-pyrrolo[3,2-c]pyridin-2-yl)methyl)-2-((3-(2-fluoro-4-methylphenoxy)benzoyl)glycyl)-5-methyl-2-azabicyclo[3.1.0]hexane-3-carboxamide]	< 100 nM
C[C@@H](NC(=O)[C@@H]1C[C@]2(C)C[C@@H]2N1C(=O)CN1Cc2cc(-c3ccc(F)cc3F)ccc2C1=O)c1cc2cnccc2[nH]1 [Compound 113, (1S,3S,5S)-N-((R)-1-(1H-pyrrolo[3,2-c]pyridin-2-yl)ethyl)-2-(2-(5-(2,4-difluorophenyl)-1-oxoisoindolin-2-yl)acetyl)-5-methyl-2-azabicyclo[3.1.0]hexane-3-carboxamide]	< 100 nM
O=C(NCC(=O)N1C[C@H](OC(F)F)C[C@H]1C(=O)NCc1cnc2c(c1)CNC2)c1ccc2c(c1)Oc1ccccc1S2 [Compound 253, (2S,4R)-4-(difluoromethoxy)-N-((6,7-dihydro-5H-pyrrolo[3,4-b]pyridin-3-yl)methyl)-1-((phenoxathiine-3-carbonyl)glycyl)pyrrolidine-2-carboxamide]	100 to 1000 nM
